Measurements as given in patent publication US20240091226A1, “Forms and Formulations Of A Tyrosine Kinase Non-Receptor 1 (TNK1) Inhibitor” (Sumitomo Pharma Oncology, inc., priority 2021, published 2024).
Converted amounts (≈) assume the structure as drawn. “Also recorded” adds a separate entry of the source.

How the values were obtained:
[1] = Two-week solid-state stability (XRPD, HPLC purity); assay type: physicochemical; conditions: two weeks; for Stress stability / solid-state physical and chemical stability (in words): 25° C./60% RH and 40° C./75% RH (open); for Purity (area %) after storage / Purity vs Initial (%): open
Procedure: Solid-state Stability. Solid-state stability of Freebase Type E+F (818718-01-A), L-Malate Type B (818718-21-A1) and Mesylate Type A (818718-21-A5) were evaluated under 25° C./60% RH and 40° C./75% RH (open) for two weeks. Stability samples were characterized by XRPD to check any solid form change, and by HPLC to check purity change.

[2] = Hygroscopicity by dynamic vapor sorption (DVS); assay type: physicochemical; conditions: for Hygroscopicity (%), water uptake: DVS, 25° C./80% RH; for Form Change after DVS: XRPD before and after DVS
Procedure: Hygroscopicity. DVS isotherm plot was collected at 25° C. to investigate the solid form stability as a function of humidity. All of Freebase Type E+F, L-Malate Type B, Succinate Type B and Mesylate Type A were equilibrated at ambient humidity (70% RH or 80% RH) to prevent form change before testing.
DVS. Dynamic Vapor Sorption (DVS) was measured via a SMS (Surface Measurement Systems) DVS Intrinsic. The relative humidity at 25° C. was calibrated against deliquescence point of LiCl, Mg(NO3)2 and KCl.

[3] = Kinetic solubility in water, SGF and FaSSIF at 37° C.; assay type: physicochemical; conditions: for Kinetic solubility in water (in words): Freebase Type E+F as control
Procedure: Kinetic Solubility. Kinetic solubility of salt leads was measured in water, SGF and FaSSIF to evaluate their solubility and disproportionation risk, using Freebase Type E+F (818718-01-A) as control. […] After centrifugation, supernatants were collected for HPLC and pH tests, and wet cakes were collected for XRPD characterization.

[4] = system: Apc^Min+/− mice; assay: ApcMin mouse efficacy model; assay type: in vivo
Procedure: TNK1 upregulation is reported to play a role in the pathogenic process of intestinal barrier disruption in a transgenic mice model of increased TNK1 expression/activation (PMID: 30320600). Therefore, the efficacy of the compound of structural formula I was evaluated in germline mutant mouse model of intestinal neoplasia and cachexia, Apc^Min+/− model, which is also known to induce gut barrier dysfunction (PMID: 21914473). Apc^Min+/− mice are reported to start the development of tumors at approximately 4 weeks of age. Twenty female Apc^Min+/− mice (JAX Stock No: 002020) were enrolled in the study at the age of 10 weeks. Randomization was done based on the body weight, and animals were divided into four treatment groups (5 mice/group). […] Celecoxib is a COX-2 inhibitor, and was used as a positive control because it has been reported to prevent and regress adenomas in APC model (PMID: 11016626). Mice were sacrificed 2 hours after the last dose of total 10 weeks of dosing (71 days), at the age of 20 weeks. After dosing started, the animals were checked daily for morbidity and mortality.

Compound: COc1cc(N2CCN(C)CC2)c(Cl)cc1Nc1ncc(Cl)c(Nc2cccnc2N2CCCC2=O)n1 [Mesylate Type A]
- Stress stability / solid-state physical and chemical stability (in words) [1]: good physical and chemical stability; also recorded: good physicochemical stability; also recorded: good physiochemical stability
- Purity (area %) after storage ([1]; 25° C./60% RH): 99.31 area %
- Purity vs Initial (%) ([1]; 25° C./60% RH): 100.1%
- Purity (area %) after storage ([1]; 40° C./75% RH): 99.43 area %
- Purity vs Initial (%) ([1]; 40° C./75% RH): 100.2%
- Hygroscopicity (%), water uptake [2]: 2.74%
- Form Change after DVS [2]: No form change and No
- FC: form change ([3]; FaSSIF, 1 hr): new form with low crystallinity and Yes
- S: solubility ([3]; FaSSIF, 1 hr): 370 µg/mL
- pH: final pH ([3]; FaSSIF, 1 hr): 6.4
- FC: form change ([3]; FaSSIF, 4 hrs): Yes
- S: solubility ([3]; FaSSIF, 4 hrs): 360 µg/mL
- pH: final pH ([3]; FaSSIF, 4 hrs): 6.3
- FC: form change ([3]; FaSSIF, 24 hrs): Yes
- S: solubility ([3]; FaSSIF, 24 hrs): 340 µg/mL
- pH: final pH ([3]; FaSSIF, 24 hrs): 6.2
- S: solubility ([3]; H2O, 1 hr): 7500 µg/mL
- pH: final pH ([3]; H2O, 1 hr): 6.1
- S: solubility ([3]; H2O, 4 hrs): 7500 µg/mL
- pH: final pH ([3]; H2O, 4 hrs): 6.2
- S: solubility ([3]; H2O, 24 hrs): 7400 µg/mL
- pH: final pH ([3]; H2O, 24 hrs): 6.0
- Kinetic solubility in SGF (in words) ([3]; SGF): showed relatively high solubility in SGF at 37 °C L-Malate
- S: solubility ([3]; SGF, 1 hr): 8200 µg/mL
- pH: final pH ([3]; SGF, 1 hr): 2.5
- S: solubility ([3]; SGF, 4 hrs): 8000 µg/mL
- pH: final pH ([3]; SGF, 4 hrs): 2.6
- S: solubility ([3]; SGF, 24 hrs): 7400 µg/mL
- pH: final pH ([3]; SGF, 24 hrs): 2.5
- Kinetic solubility in water (in words) [3]: increased solubility

Compound: COc1cc(N2CCN(C)CC2)c(Cl)cc1Nc1ncc(Cl)c(Nc2cccnc2N2CCCC2=O)n1 [L-Malate Type B]
- Stress stability / solid-state physical and chemical stability (in words) [1]: good physical and chemical stability; also recorded: good physicochemical stability
- Purity (area %) after storage ([1]; 25° C./60% RH): 98.97 area %
- Purity vs Initial (%) ([1]; 25° C./60% RH): 100.0%
- Purity (area %) after storage ([1]; 40° C./75% RH): 98.96 area %
- Purity vs Initial (%) ([1]; 40° C./75% RH): 100.0%
- Hygroscopicity (%), water uptake [2]: 3.00%
- Form Change after DVS [2]: No form change and No
- S: solubility ([3]; FaSSIF, 1 hr): 7200 µg/mL
- pH: final pH ([3]; FaSSIF, 1 hr): 5.0
- S: solubility ([3]; FaSSIF, 4 hrs): 6900 µg/mL
- pH: final pH ([3]; FaSSIF, 4 hrs): 4.9
- S: solubility ([3]; FaSSIF, 24 hrs): 7400 µg/mL
- pH: final pH ([3]; FaSSIF, 24 hrs): 4.9
- Kinetic solubility in FaSSIF (in words) ([3]; FaSSIF, compared with Mesylate Type A and Freebase Type E+F): Type B showed much higher solubility than Mesylate Type A
- S: solubility ([3]; H2O, 1 hr): 7100 µg/mL
- pH: final pH ([3]; H2O, 1 hr): 4.0
- S: solubility ([3]; H2O, 4 hrs): 7200 µg/mL
- pH: final pH ([3]; H2O, 4 hrs): 4.0
- S: solubility ([3]; H2O, 24 hrs): 6700 µg/mL
- pH: final pH ([3]; H2O, 24 hrs): 4.1
- Kinetic solubility in SGF (in words) ([3]; SGF): showed relatively high solubility in SGF at 37 °C L-Malate
- S: solubility ([3]; SGF, 1 hr): 7600 µg/mL
- pH: final pH ([3]; SGF, 1 hr): 3.2
- S: solubility ([3]; SGF, 4 hrs): 7700 µg/mL
- pH: final pH ([3]; SGF, 4 hrs): 3.1
- S: solubility ([3]; SGF, 24 hrs): 6900 µg/mL
- pH: final pH ([3]; SGF, 24 hrs): 3.2
- Kinetic solubility in water (in words) [3]: increased solubility

Compound: COc1cc(N2CCN(C)CC2)c(Cl)cc1Nc1ncc(Cl)c(Nc2cccnc2N2CCCC2=O)n1 [Succinate Type B]
- Hygroscopicity (%), water uptake [2]: 8.22%
- Form Change after DVS [2]: No form change

Compound: COc1cc(N2CCN(C)CC2)c(Cl)cc1Nc1ncc(Cl)c(Nc2cccnc2N2CCCC2=O)n1 [Freebase Type E+F]
- Stress stability / solid-state physical and chemical stability (in words) [1]: good physical and chemical stability; also recorded: good physicochemical stability
- Purity (area %) after storage ([1]; 25° C./60% RH): 98.64 area %
- Purity vs Initial (%) ([1]; 25° C./60% RH): 100.0%
- Purity (area %) after storage ([1]; 40° C./75% RH): 98.75 area %
- Purity vs Initial (%) ([1]; 40° C./75% RH): 100.1%
- Hygroscopicity (%), water uptake [2]: 1.55%
- Hygroscopicity (%), water uptake ([2]; listed as Freebase Type E + F): hygroscopic (1.55) %
- Form Change after DVS [2]: No form change
- Form Change after DVS ([2]; listed as Freebase Type E + F): No
- Hygroscopicity (class) ([2]; based on water uptake at 25° C./80% RH): slightly hygroscopic (slightly hygroscopic - 0.2~2%)
- FC: form change ([3]; FaSSIF, 1 hr): Yes
- S: solubility ([3]; FaSSIF, 1 hr): 170 µg/mL
- pH: final pH ([3]; FaSSIF, 1 hr): 6.6
- FC: form change ([3]; FaSSIF, 4 hrs): Yes
- S: solubility ([3]; FaSSIF, 4 hrs): 180 µg/mL
- pH: final pH ([3]; FaSSIF, 4 hrs): 5.6
- FC: form change ([3]; FaSSIF, 24 hrs): Yes
- S: solubility ([3]; FaSSIF, 24 hrs): 110 µg/mL
- pH: final pH ([3]; FaSSIF, 24 hrs): 6.5
- FC: form change ([3]; H2O, 1 hr): Yes
- S: solubility ([3]; H2O, 1 hr): 1.2 µg/mL
- pH: final pH ([3]; H2O, 1 hr): 8.8
- FC: form change ([3]; H2O, 4 hrs): Yes
- S: solubility ([3]; H2O, 4 hrs): 1.2 µg/mL
- pH: final pH ([3]; H2O, 4 hrs): 8.6
- FC: form change ([3]; H2O, 24 hrs): Yes
- S: solubility ([3]; H2O, 24 hrs): 2.4 µg/mL
- pH: final pH ([3]; H2O, 24 hrs): 8.4
- Kinetic solubility in SGF (in words) ([3]; SGF): relatively high solubility
- solubility at 1 h ([3]; SGF, 37 °C, simulated gastric fluid, thermodynamic from solid, SGF, 1 hr, read-out: S: solubility): 7100 µg/mL (≈ 13.1 mM)
- solubility at 4 h ([3]; SGF, 37 °C, simulated gastric fluid, thermodynamic from solid, SGF, 4 hrs, read-out: S: solubility): 7200 µg/mL (≈ 13.2 mM)
- solubility at 24 h ([3]; SGF, 37 °C, simulated gastric fluid, thermodynamic from solid, SGF, 24 hrs, read-out: S: solubility): 7200 µg/mL (≈ 13.2 mM)
- FC: form change ([3]; SGF, 1 hr): Yes
- pH: final pH ([3]; SGF, 1 hr): 5.4
- FC: form change ([3]; SGF, 4 hrs): Yes
- pH: final pH ([3]; SGF, 4 hrs): 5.4
- FC: form change ([3]; SGF, 24 hrs): Yes
- pH: final pH ([3]; SGF, 24 hrs): 6.2
- Kinetic solubility in SGF (in words) ([3]; SGF, listed as Freebase Type E + F): showed relatively high solubility in SGF at 37 °C L-Malate
- form after kinetic solubility test ([3]; all the three media (water, SGF, FaSSIF)): turned to Freebase Type E

Compound: Cc1ccc(-c2cc(C(F)(F)F)nn2-c2ccc(S(N)(=O)=O)cc2)cc1 [celecoxib, reference compound]
- reduction of spleen size compared to vehicle ([4]; 120 mg/kg): approximately 26%
- decrease in number of polyps in the intestine compared to vehicle ([4]; 120 mg/kg once daily oral gavage, 10 weeks, female Apc^Min+/− mice): approximately 90%
